From paper PMC1790702, “Non-Metabolic Membrane Tubulation and Permeability Induced by Bioactive Peptides” (PLoS ONE, 2007)
Read-outs that look alike come from different tables or passages of the source.

What was measured:
[1] = Tryptophan fluorescence, membrane binding; conditions: excitation 280 nm, PC/PG (9/1) LUVs, 25°C
Experimental: Tryptophan fluorescence was measured following the recommendations described in [51]. Excitation wavelength was 280 nm, and emission spectrum was collected (290–600 nm). Excitation and emission slits were 6 nm and 5 nm respectively. A cross-oriented configuration of the polarizer (Expol = 90°, Empol = 0°) was used in order to reduce LUVs diffusion artefacts.

[2] = test system: Annexin 2-GFP transfected MDCK cells; assay: Cell permeability, Ca2+ influx monitored by Annexin 2-GFP movement; assay type: cell-based; conditions: for Permeability towards ions at high peptide concentration: 100 µM peptide; for Permeability towards ions at high peptide concentration / Ca2+ influx and mobilization of annexin 2 from cytosol to the plasma membrane: Annexin 2-GFP MDCK cells; for Cell permeabilization: monitored by calcium permeability inducing annexin 2 movement in MDCK cells; for Ca2+ influx and mobilization of annexin 2 from cytosol to the plasma membrane: 10 µM peptide, in 10 minutes
Experimental: (§1) Annexin 2-GFP expression vector was a kind gift of Dr Stephen Moss (London UK). The annexin2-GFP transfected MDCK cloning will be published elsewhere. MDCK cells were cultured as described. Peptides were added at different concentrations and the annexin-GFP fluorescence was followed in a Zeiss inverted microscope. Films were acquired with Metamorph software. Cytotoxicity in CHO cells was evaluated using the CCK8 cell counting kit (Dojindo Laboratories). Briefly, cell suspension (100 µl, 1500 CHO cells per well) were seeded in DMEM plus 10 % FCS in 96-well microtiter plate at 37°C. 10 µl of peptides were added twice to the cells after 24 and 48 hours of cell culture to obtain concentrations of 1, 10, 20 and 50 µM and the toxicity was evaluated 48 after treatment.

[3] = LUV aggregation by turbidimetry; conditions: for Peptide/Lipid ratio at which LUVs are aggregated efficiently: discussion, from figure 5; for P/L ratio at the plateau of LUV aggregation / P/L ratio at which LUV aggregation decreases: HEPES 10 mM pH 7.4, 20 min; for P/L ratio at the plateau of LUV aggregation / Peptide/lipid mass ratio (P/L) at which LUV aggregation starts / P/L ratio at which LUV aggregation decreases: 25°C; for Peptide/lipid mass ratio (P/L) at which LUV aggregation starts: turbidity, absorbance at 340 nm, 10 µg LUVs in 500 µl HEPES 10 mM pH 7.4, 20 min after peptide addition; for P/L ratio at which LUV aggregation decreases: peak-like profile
Experimental: (§2) Large unilamellar vesicles (LUV) were prepared by extrusion through a polycarbonate filter (pore diameter 100 nm) in an extrusion device from Avestin as described in [38]. To obtain calcein loaded LUVs, at 2 mg/ml lipid concentration (PC/PG/ [^14C] PC 9/1/0.01 mol ratio), a solution in chloroform was dried under a gentle stream of nitrogen and maintained under vacuum for at least 2 h to ascertain removal of residual solvent. Then, the dried lipid film was hydrated with 1 ml of 70 mM calcein solution in HEPES 10 mM pH 7.4, vigorously vortexed and extruded. Free calcein was separated by passing the suspension trough two gel filtration columns in tandem (Econo-Pac 10 DG, Bio-Rad). The final lipid concentration was quantified measuring the [^14C] PC radiactivity with a liquid scintillation counter LS 6000 SC (Beckman Coulter France).
LUVs aggregation was monitored by turbidimetry (absorbance at 340 nm) in a Cary spectrophotometer (Varian) as described. Peptides were added to a 500 µl quartz cuvette containing 10 µg of LUVs in a HEPES 10 mM pH 7.4 buffer and the absorbance was followed during 20 min after peptide exposure. At this time, membrane aggregation attained the plateau.

[4] = Membrane deformations on giant unilamellar vesicles, phase contrast video-microscopy
Experimental: Giant unilamellar vesicles (GUVs) were obtained by electroformation as described in [49]. Briefly, 1.5 µl of PC/PG (9/1, w/w) solution (0.4 mg/ml in chloroform/methanol 9/1) were spread on each platinum electrode. The lipid film was dried for half an hour under a gentle stream of nitrogen. The chamber was placed in an inverted microscope (Zeiss Axiovert 200M) and a thermocouple positioned to monitor the temperature (25°C). The electrodes were then completely hydrated with 2 ml of a low ionic strength buffer (HEPES 0.5 mM, pH 7.4 and conductivity 20 µS/cm). Immediately after buffer addition, a low frequency alternating field (5 Hz and 1 V) was applied on the electrodes for at least 2 hours. GUVs of diameter between 10 to 100 µm were observed. […] The observation temperature was 25°C.

[5] = Calcein leakage from LUVs; conditions: 25°C; for Calcein release: peptide/lipid ratio of 1/2, LUVs PC/PG/[14C]PC 9/1/0.01, 70 mM calcein, HEPES 10 mM pH 7.4, 5 min after peptide addition, fluorescence, relative to lysis with 1% Triton X-100
Experimental: as §2
The release of calcein after 5 minutes of peptide exposure to LUVs was measured by spectrofluorimetry (Varian eclipse) at excitation and emission wavelengths of 490 nm and 500–650 nm, respectively. […] Leakage was expressed as a percent relative of the total amount of dye released by LUVs lysis with 1% Triton X-100, according to equation: % release = 100×(F(t)−F0)/(FT−F0). F(t) is the fluorescence intensity at time t, F0 is the fluorescence intensity before peptide addition and FT the fluorescence intensity after LUVs lysis.

CHO cells = assay: Cytotoxicity, CCK8 cell counting kit; assay type: cell-based; conditions: for Lethality: after 48 hours of incubation of CHO cells with 10 µM peptides, CCK8, DMEM plus 10 % FCS, 37°C
Experimental: as §1

[6] = Small angle X-ray scattering of multilamellar vesicles, electron density profiles; assay type: physicochemical; conditions: for S^−1 (repeat distance), Ld1 phase / S^−1 (repeat distance), Ld2 phase: 5 mM HEPES pH 7.4, 20°C; for dwater (thickness of the hydration layer), Ld2 phase: peptide-free 2.19; for dwater (thickness of the hydration layer), Ld1 phase: peptide-free 2.23; for dbilayer (thickness of the membrane bilayer), Ld1 phase: peptide-free 3.90; for Change of bilayer thickness, Ld1 phase / Change of membrane thickness, Ld2 phase: versus peptide-free PC/PG (9/1) MLVs, P/L 1/20 (w/w)
Experimental: Briefly, samples for SAXS examination were prepared by dissolving dry lipids in chloroform/methanol (2/1, vol/vol) and mixing to obtain the indicated proportions. The solvent was subsequently evaporated under a stream of oxygen-free dry nitrogen at 45°C and traces of solvent removed by a storage under high vacuum for 2 days. In order to obtain the Multiple Lamellar Vesicles (MLVs) the dry lipids were hydrated with an equal weight of buffer (5 mM HEPES pH 7.4). The aqueous lipid dispersion was thoroughly stirred to obtain a homogeneous dispersion, sealed under argon and kept until examination at 4°C. For X-ray measurements, lipid samples (∼20 µl) were deposited between two thin mica windows and mounted on a programmable thermal stage (Linkam, UK). The temperature was monitored by a thermocouple (Quad Service, Poissy, France) inserted directly into the lipid dispersion. Samples were exposed for 30 seconds to the beam (1.5 Å wavelength). The SAXS quadrant detector response was corrected for the uneven channel response using a static radioactive […] and S was calibrated for d-spacing using hydrated rat tail collagen. Information on the setup, calibration, and facilities are available on the station web site (http://www.srs.dl.ac.uk/ncd/station82/description.html).
The electron density profiles of lipid bilayers were obtained by Fourier synthesis of x-ray diffraction patterns. Integrated densities were derived from five diffraction orders (estimated spatial resolution <0.12 nm) by measuring the area under each diffraction peak separated and integrated using the software Peakfit (Seasolve).

[7] = PC/PG (9/1) MLVs, peptide/lipid 1/20 (w/w)
[8] = PC/PG (9/1) MLVs, peptide/lipid 1/20 (w/w), 20°C
[9] = PC/PG (9/1) MLVs, peptide/lipid 1/20 (w/w), 20°C, peptide-free 3.62

Substance: RQIKIWFQNRRMKWKK-NH2 [pAntp, Penetratin, cell-penetrating peptide, basic, non-amphipathic, 16 residues, reference compound]
- P/L ratio of peptide-membrane saturation (maximal shift in emission wavelength) [1]: 1/10
- Permeability towards ions at high peptide concentration [2]: did not induce any increase in permeability towards ions
- Cell permeabilization [2]: no
- Peptide/Lipid ratio at which LUVs are aggregated efficiently [3]: 1/20
- P/L ratio at the plateau of LUV aggregation ([3]; turbidity at 340 nm): 1/15
- Peptide/lipid mass ratio (P/L) at which LUV aggregation starts [3]: 1/25
- Time for growing micro-tubes to invade the entire vesicle internal volume ([4]; GUVs PC/PG 9/1, 25°C): less than 20 minutes
- Calcein release [5]: 11%
- Lethality (CHO cells): 0%
- S^−1 (repeat distance), Ld1 phase [6, 7]: 6.06 nm
- S^−1 (repeat distance), Ld2 phase [6, 7]: 5.94 nm
- dwater (thickness of the hydration layer), Ld2 phase [6, 8]: 2.31 nm
- dwater (thickness of the hydration layer), Ld1 phase [6, 8]: 2.28 nm
- dbilayer (thickness of the membrane bilayer), Ld2 phase [6, 9]: 3.63 nm
- dbilayer (thickness of the membrane bilayer), Ld1 phase [6, 8]: 3.78 nm

Substance: RRRRRRRRR-NH2 [R9, Polyarginine, cell-penetrating peptide, nine arginines, free N-terminal amino group, reference compound]
- Permeability towards ions at high peptide concentration [2]: did not induce any increase in permeability towards ions
- Cell permeabilization [2]: no
- Peptide/Lipid ratio at which LUVs are aggregated efficiently [3]: 1/50
- P/L ratio at the plateau of LUV aggregation ([3]; turbidity at 340 nm): 1/45
- Peptide/lipid mass ratio (P/L) at which LUV aggregation starts [3]: 1/80
- Time for growing micro-tubes to invade the entire vesicle internal volume ([4]; GUVs PC/PG 9/1, 25°C): less than 20 minutes
- Calcein release [5]: 8%
- Lethality (CHO cells): 0%

Substance: RPKPQQFFGLM-NH2 [SP, Substance P, neuromodulator, primary amphipathic peptide, free N-terminal amino group, reference compound]
- Permeability towards ions at high peptide concentration [2]: did not induce any increase in permeability towards ions
- Cell permeabilization [2]: no
- LUV aggregation ([3]; turbidity at 340 nm, HEPES 10 mM pH 7.4, 25°C): does not aggregate LUVs
- GUV morphology at high peptide concentration ([4]; after 6 hours of incubation, 50 µl of peptide solution at 0.5 mM in 2 ml of buffer): did not perturb GUVs morphology
- Calcein release [5]: 8%
- Lethality (CHO cells): 0%
- dbilayer (thickness of the membrane bilayer), Ld2 phase [6]: 3.54 nm
- S^−1 (repeat distance), Ld1 phase [6, 7]: 5.96 nm
- S^−1 (repeat distance), Ld2 phase [6, 7]: 5.75 nm
- dwater (thickness of the hydration layer), Ld2 phase [6, 8]: 2.21 nm
- dwater (thickness of the hydration layer), Ld1 phase [6, 8]: 2.34 nm
- dbilayer (thickness of the membrane bilayer), Ld1 phase [6, 8]: 3.62 nm
- Change of bilayer thickness, Ld1 phase ([6]; 20°C): −2.8 Å

Substance: RRLRRLLRRLLRRLRR-Bi [RL16, secondary amphipathic polyarginine-leucine peptide with biotin (Bi) on N-terminus]
- Ca2+ influx and mobilization of annexin 2 from cytosol to the plasma membrane [2]: provoked the Ca^2+ influx
- Cell permeabilization [2]: yes
- P/L ratio at which LUV aggregation decreases ([3]; turbidity at 340 nm): 1/10
- Peptide/lipid mass ratio (P/L) at which LUV aggregation starts [3]: around 1/25
- GUV integrity ([4]; GUVs PC/PG 9/1, 25°C): complete GUV destruction after few seconds
- P/L ratio at which a significant calcein release from LUVs is induced ([5]; 5 min after peptide addition): 1/5
- Calcein release [5]: 38%
- Cell toxicity (CHO cells; CHO cells, 48 hours of peptide incubation): the only toxic peptide
- Lethality (CHO cells): 55%
- S^−1 (repeat distance), Ld1 phase [6, 7]: 6.20 nm
- S^−1 (repeat distance), Ld2 phase [6, 7]: 6.01 nm
- dwater (thickness of the hydration layer), Ld2 phase [6, 8]: 2.26 nm
- dwater (thickness of the hydration layer), Ld1 phase [6, 8]: 2.27 nm
- dbilayer (thickness of the membrane bilayer), Ld2 phase [6, 9]: 3.75 nm
- dbilayer (thickness of the membrane bilayer), Ld1 phase [6, 8]: 3.93 nm
- Change of membrane thickness, Ld2 phase ([6]; 20°C): +1.3 Å

Substance: RRWRRWWRRWWRRWRR-Bi [RW16, secondary amphipathic polyarginine-tryptophane peptide with biotin (Bi) on N-terminus]
- P/L ratio of peptide-membrane saturation (maximal shift in emission wavelength) [1]: 1/10
- Ca2+ influx and mobilization of annexin 2 from cytosol to the plasma membrane [2]: provoked the Ca^2+ influx
- Cell permeabilization [2]: yes
- P/L ratio at which LUV aggregation decreases ([3]; turbidity at 340 nm): 1/10
- Peptide/lipid mass ratio (P/L) at which LUV aggregation starts [3]: around 1/25
- Calcein release [5]: 14%
- Lethality (CHO cells): 0%
- S^−1 (repeat distance), Ld1 phase [6, 7]: 6.08 nm
- S^−1 (repeat distance), Ld2 phase [6, 7]: 5.89 nm
- dwater (thickness of the hydration layer), Ld2 phase [6, 8]: 2.18 nm
- dwater (thickness of the hydration layer), Ld1 phase [6, 8]: 2.25 nm
- dbilayer (thickness of the membrane bilayer), Ld2 phase [6, 9]: 3.71 nm
- dbilayer (thickness of the membrane bilayer), Ld1 phase [6, 8]: 3.83 nm
- Change of membrane thickness, Ld2 phase ([6]; 20°C): 0.9 Å

Substance: RRWWRRWRR-NH2 [RW9, short secondary amphipathic polyarginine-tryptophane peptide, free N-terminal amino group]
- P/L ratio of peptide-membrane saturation (maximal shift in emission wavelength) [1]: 1/15
- Permeability towards ions at high peptide concentration [2]: did not induce any increase in permeability towards ions
- Cell permeabilization [2]: no
- Peptide/Lipid ratio at which LUVs are aggregated efficiently [3]: 1/30
- P/L ratio at which LUV aggregation decreases ([3]; turbidity at 340 nm): 1/10
- Peptide/lipid mass ratio (P/L) at which LUV aggregation starts [3]: 1/35
- Calcein release [5]: 7%
- Lethality (CHO cells): 0%
- S^−1 (repeat distance), Ld1 phase [6, 7]: 5.96 nm
- S^−1 (repeat distance), Ld2 phase [6, 7]: 5.74 nm
- dwater (thickness of the hydration layer), Ld2 phase [6, 8]: 2.19 nm
- dwater (thickness of the hydration layer), Ld1 phase [6, 8]: 2.33 nm
- dbilayer (thickness of the membrane bilayer), Ld2 phase [6, 9]: 3.55 nm
- dbilayer (thickness of the membrane bilayer), Ld1 phase [6, 8]: 3.63 nm
- Change of bilayer thickness, Ld1 phase ([6]; 20°C): −2.7 Å
